# Source: US4450269A, “Mono-5-substituted-3-chloro-4H-1,2,6-thiadiazin-4-one antifungal agents” (FMC Corporation, priority 1980, dated 1984)
# Structures can show the parent of a compound that is named as a salt.
# Columns and labels:
# Erysiphe polygoni = test: whole plant or invertebrate; details: foliar, 24 h, read-out: Percent Disease Control, curative, bean powdery mildew
# Pythium ultimum = test: Mycelial growth test; format: cell-based; details: PU; for inhibition at 5 ppm / inhibition at 10 ppm / inhibition at 20 ppm / inhibition at 40 ppm: Globisporangium ultimum, 72 h, read-out: Percent Fungus Growth Inhibition; for Percent Fungus Growth Inhibition: 72 hours
Compound,pest or weed control at 150 ppm (Erysiphe polygoni),inhibition at 5 ppm (Pythium ultimum; 5 ppm),inhibition at 10 ppm (Pythium ultimum; 10 ppm),inhibition at 20 ppm (Pythium ultimum; 20 ppm),inhibition at 40 ppm (Pythium ultimum; 40 ppm),"Percent Fungus Growth Inhibition (Pythium ultimum; 20 ppm, hydrochloride)","Percent Fungus Growth Inhibition (Pythium ultimum; 40 ppm, hydrochloride)",Percent Fungus Growth Inhibition (Pythium ultimum; 5 ppm),Percent Fungus Growth Inhibition (Pythium ultimum; 10 ppm),Percent Fungus Growth Inhibition (Pythium ultimum; 20 ppm),Percent Fungus Growth Inhibition (Pythium ultimum; 40 ppm)
"O=c1c(Cl)nsnc1Oc1cccc(C(F)(F)F)c1 [Compound 44, 3-chloro-5-[(3-trifluoromethyl)phenoxy]-4H--1,2,6-thiadiazin-4-one]",100%,100%,100%,100%,100%,–,–,–,–,–,–
"C[S+]([O-])c1ccc(Oc2nsnc(Cl)c2=O)cc1 (centres unmarked) [Compound 40, 3-chloro-5-[(4-methylsulfinyl)phenoxy]-4H-1,2,6,-thiadiazin-4-one]",0%,0%,100%,100%,100%,–,–,–,–,–,–
"Cc1ccc(Oc2nsnc(Cl)c2=O)c(C)c1 [Compound 23, 3-chloro-5-(2,4-dimethylphenoxy)-4H--1,2,6-thiadiazin-4-one]",0%,62%,69%,71%,100%,–,–,–,–,–,–
"CSc1ccc(Oc2nsnc(Cl)c2=O)cc1 [Compound 39, 3-chloro-5-[(4-methylthio)phenoxy]-4H-1,2,6,-thiadiazin-4-one]",0%,0%,24%,100%,100%,–,–,–,–,–,–
"CC(=O)Nc1cccc(Oc2nsnc(Cl)c2=O)c1 [Compound 42, 3-[(3-N--acetylamino)-phenoxy]-5-chloro-4H--1,2,6-thiadiazin-4-one]",0%,0%,42%,100%,100%,–,–,–,–,–,–
"COc1cc(Cl)cc(Oc2nsnc(Cl)c2=O)c1 [Compound 52, 3-chloro-5-[(3-chloro-5-methoxy)phenoxy]-4H--1,2,6-thiadiazin-4-one]",75%,4%,60%,100%,100%,–,–,–,–,–,–
"N#Cc1ccc(Oc2nsnc(Cl)c2=O)cc1 [Compound 10, 3-chloro-5-(4-cyanophenoxy)-4H--1,2,6-thiadiazin-4-one]",0%,11%,24%,42%,64%,–,–,–,–,–,–
"O=c1c(Cl)nsnc1Oc1ccccc1Br [Compound 34, 3-chloro-5-(2-bromophenoxy)-4H-1,2,6,-thiadiazin-4-one]",95%,0%,64%,87%,100%,–,–,–,–,–,–
"Cc1cc(Oc2nsnc(Cl)c2=O)cc(C)c1Cl [Compound 59, 3-chloro-5-[(4-chloro-3,5-dimethyl)phenoxy]-4H--1,2,6-thiadiazin-4-one]",–,0%,0%,0%,29%,–,–,–,–,–,–
"Cc1cc(C)cc(Oc2nsnc(Cl)c2=O)c1 [Compound 25, 3-chloro-5-(3,5-dimethylphenoxy)-4H--1,2,6-thiadiazin-4-one]",100%,0%,47%,100%,100%,–,–,–,–,–,–
"O=c1c(Cl)nsnc1Oc1c(Cl)c(Cl)c(Cl)c(Cl)c1Cl [Compound 31, 3-chloro-5-(pentachlorophenoxy)-4H--1,2,6-thiadiazine-4-one]",100%,0%,0%,0%,0%,–,–,–,–,–,–
"Nc1ccc(Oc2nsnc(Cl)c2=O)cc1 [Compound 27, 5-(4-aminophenoxy)-3-chloro-4H--1,2,6-thiadiazine-4-one hydrochloride]",–,–,–,–,–,0%,80%,–,–,–,–
"COc1cc(Oc2nsnc(Cl)c2=O)cc(OC)c1C(C)=O [Compound 61, 3-[(4-acetyl-3,5-dimethoxy)-phenoxy]-5-chloro-4H--1,2,6-thiadiazin-4-one]",0%,31%,42%,100%,100%,–,–,–,–,–,–
"O=c1c(Cl)nsnc1Oc1cccc2ccccc12 [Compound 32, 3-chloro-5(1-naphthoxy)-4H-1,2,6-thiadiazin-4-one]",90%,73%,73%,100%,100%,–,–,–,–,–,–
"Cc1ccc(Oc2nsnc(Cl)c2=O)cc1 [Compound 3, 3-chloro-5-(4-methylphenoxy)-4H--1,2,6-thiadiazin-4-one]",0%,20%,100%,100%,100%,–,–,–,–,–,–
"O=c1c(Cl)nsnc1Oc1c(Cl)cc(Cl)cc1Cl [Compound 30, 3-chloro-5-(2,4,6-trichlorophenoxy)-4H--1,2,6-thiadiazin-4-one]",100%,20%,71%,96%,100%,–,–,–,–,–,–
"O=c1c(Cl)nsnc1Oc1ccc(Cl)c(Cl)c1 [Compound 16, 3-chloro-5-(3,4-dichlorophenoxy)-4H--1,2,6-thiadiazin-4-one]",0%,7%,11%,47%,56%,–,–,–,–,–,–
"CC(C)(C)c1ccc(Oc2nsnc(Cl)c2=O)cc1 [Compound 4, 3-chloro-5-(4-tert-butylphnoxy)-4H--1,2,6-thiadiazin-4-one]",100%,0%,20%,0%,0%,–,–,–,–,–,–
"COc1ccc(Cl)c(Oc2nsnc(Cl)c2=O)c1 [Compound 51, 3-chloro-5-[(2-chloro-5-methoxy)phenoxy]-4H--1,2,6-thiadiazin-4-one]",0%,0%,31%,91%,100%,–,–,–,–,–,–
"COc1ccc(Oc2nsnc(Cl)c2=O)cc1 [Compound 5, 3-chloro-5-(4-methoxyphenoxy)4H--1,2,6-thiadiazin-4-one]",0%,0%,42%,76%,100%,–,–,–,–,–,–
"O=c1c(Cl)nsnc1Oc1ccccc1Cl [Compound 14, 3-chloro-5-(2-chlorophenoxy)-4H--1,2,6-thiadiazin-4-one]",50%,31%,53%,100%,100%,–,–,–,–,–,–
"CC(=O)Nc1ccccc1Oc1nsnc(Cl)c1=O [Compound 43, 3-[(2-acetylamino)-phenoxy]-5-chloro-4H--1,2,6-thiadiazin-4-one]",0%,0%,0%,0%,0%,–,–,–,–,–,–
"O=c1c(Cl)nsnc1Oc1c(Cl)cccc1Cl [Compound 18, 3-chloro-5-(2,6-dichlorophenoxy)-4H--1,2,6-thiadiazin-4-one]",100%,13%,60%,100%,100%,–,–,–,–,–,–
"O=C(O)Cc1ccccc1Oc1nsnc(Cl)c1=O [Compound 45, 3-(2-carboxymethylphenoxy)-5-chloro-4H--1,2,6-thiadiazin-4-one]",0%,0%,42%,69%,100%,–,–,–,–,–,–
"3-chloro-5-(bromophenoxy)-4H-1,2,6-thiadiazin-4-one [Compound 33]",–,–,–,–,–,–,–,69%,87%,96%,100%
"O=c1c(Cl)nsnc1Oc1cccc(Cl)c1Cl [Compound 19, 3-chloro-5-(2,3-dichlorophenoxy)-4H--1,2,6-thiadiazin-4-one]",–,20%,80%,100%,100%,–,–,–,–,–,–
"Cc1cc(Oc2nsnc(Cl)c2=O)cc(C)c1Br [Compound 60, 3-[(4-bromo-3,5-dimethyl)-phenoxy]-5-chloro-4H--1,2,6-thiadiazin-4-one]",–,9%,0%,0%,13%,–,–,–,–,–,–
